In PubChem BioAssay (NCI):
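How tested: cells in 96-well plates exposed to compound for 48 hours at five concentrations. TGI denotes the concentration required for complete inhibition of growth.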

System: HOP-18 NSCLC
Assay: NCI tumour cell line growth inhibition, 48 h

| SMILES | TGI [µM] |
| --- | --- |
| CCCCC#CS(=O)(=O)C(F)(F)F | > 100 |
| CC1(C)OC2CC(=O)OCC23C1CC(=O)C1(C)C3CCC2(C)C(c3ccoc3)OC(=O)C3OC321 (stereo not given) | > 125 |

System: TK-10 renal
Assay: NCI tumour cell line growth inhibition, 48 h

| SMILES | TGI [µM] |
| --- | --- |
| O=C(OCc1ccccc1)C(Cc1ccccc1)N(Cc1ccccc1)Cc1ccccc1 (stereo not given) | > 100 |
| O=[N+]([O-])c1ccc(C2=Nc3ccccc3SC(c3ccccc3)C2)cc1 (stereo not given) | > 100 |
| O=C(c1ccco1)C1CC(c2c(O)ccc3ccccc23)=NN1 (stereo not given) | 32.5 |

System: SN12K1 renal
Assay: NCI tumour cell line growth inhibition, 48 h

| SMILES | TGI [µM] |
| --- | --- |
| CCCCC#CS(=O)(=O)C(F)(F)F | > 100 |
| CC1(C)OC2CC(=O)OCC23C1CC(=O)C1(C)C3CCC2(C)C(c3ccoc3)OC(=O)C3OC321 (stereo not given) | > 125 |

System: HCT-116 colon
Assay: NCI tumour cell line growth inhibition, 48 h

| SMILES | TGI [µM] |
| --- | --- |
| O=C(OCc1ccccc1)C(Cc1ccccc1)N(Cc1ccccc1)Cc1ccccc1 (stereo not given) | > 100 |
| O=[N+]([O-])c1ccc(C2=Nc3ccccc3SC(c3ccccc3)C2)cc1 (stereo not given) | 24.2 |
| CCCCC#CS(=O)(=O)C(F)(F)F | > 100 |
| CC1(C)OC2CC(=O)OCC23C1CC(=O)C1(C)C3CCC2(C)C(c3ccoc3)OC(=O)C3OC321 (stereo not given) | > 125 |

System: SF-539 CNS
Assay: NCI tumour cell line growth inhibition, 48 h

| SMILES | TGI [µM] |
| --- | --- |
| O=C(OCc1ccccc1)C(Cc1ccccc1)N(Cc1ccccc1)Cc1ccccc1 (stereo not given) | > 100 |
| O=[N+]([O-])c1ccc(C2=Nc3ccccc3SC(c3ccccc3)C2)cc1 (stereo not given) | 40.3 |
| CCCCC#CS(=O)(=O)C(F)(F)F | > 100 |
| O=C(c1ccco1)C1CC(c2c(O)ccc3ccccc23)=NN1 (stereo not given) | 26.7 |
| CC1(C)OC2CC(=O)OCC23C1CC(=O)C1(C)C3CCC2(C)C(c3ccoc3)OC(=O)C3OC321 (stereo not given) | > 125 |

System: HT29 colon
Assay: NCI tumour cell line growth inhibition, 48 h

| SMILES | TGI [µM] |
| --- | --- |
| O=C(OCc1ccccc1)C(Cc1ccccc1)N(Cc1ccccc1)Cc1ccccc1 (stereo not given) | > 100 |
| CCCCC#CS(=O)(=O)C(F)(F)F | > 100 |
| O=C(c1ccco1)C1CC(c2c(O)ccc3ccccc23)=NN1 (stereo not given) | 24 |
| CC1(C)OC2CC(=O)OCC23C1CC(=O)C1(C)C3CCC2(C)C(c3ccoc3)OC(=O)C3OC321 (stereo not given) | > 125 |

System: P388 leukemia
Assay: NCI tumour cell line growth inhibition, 48 h

| SMILES | TGI [µM] |
| --- | --- |
| CCCCC#CS(=O)(=O)C(F)(F)F | 63.2 |
| CC1(C)OC2CC(=O)OCC23C1CC(=O)C1(C)C3CCC2(C)C(c3ccoc3)OC(=O)C3OC321 (stereo not given) | > 39.5 |

System: OVCAR-3 ovarian
Assay: NCI tumour cell line growth inhibition, 48 h

| SMILES | TGI [µM] |
| --- | --- |
| O=C(OCc1ccccc1)C(Cc1ccccc1)N(Cc1ccccc1)Cc1ccccc1 (stereo not given) | > 100 |
| CCCCC#CS(=O)(=O)C(F)(F)F | > 100 |
| O=C(c1ccco1)C1CC(c2c(O)ccc3ccccc23)=NN1 (stereo not given) | 25.8 |
| CC1(C)OC2CC(=O)OCC23C1CC(=O)C1(C)C3CCC2(C)C(c3ccoc3)OC(=O)C3OC321 (stereo not given) | > 125 |

System: A549 NSCLC
Assay: NCI tumour cell line growth inhibition, 48 h

| SMILES | TGI [µM] |
| --- | --- |
| O=C(OCc1ccccc1)C(Cc1ccccc1)N(Cc1ccccc1)Cc1ccccc1 (stereo not given) | > 100 |
| O=[N+]([O-])c1ccc(C2=Nc3ccccc3SC(c3ccccc3)C2)cc1 (stereo not given) | 51.2 |
| CCCCC#CS(=O)(=O)C(F)(F)F | > 100 |
| CC1(C)OC2CC(=O)OCC23C1CC(=O)C1(C)C3CCC2(C)C(c3ccoc3)OC(=O)C3OC321 (stereo not given) | > 125 |

System: SK-MEL-5 melanoma
Assay: NCI tumour cell line growth inhibition, 48 h

| SMILES | TGI [µM] |
| --- | --- |
| O=C(OCc1ccccc1)C(Cc1ccccc1)N(Cc1ccccc1)Cc1ccccc1 (stereo not given) | > 100 |
| O=[N+]([O-])c1ccc(C2=Nc3ccccc3SC(c3ccccc3)C2)cc1 (stereo not given) | 32.9 |
| CCCCC#CS(=O)(=O)C(F)(F)F | > 100 |
| O=C(c1ccco1)C1CC(c2c(O)ccc3ccccc23)=NN1 (stereo not given) | 29.7 |
| CC1(C)OC2CC(=O)OCC23C1CC(=O)C1(C)C3CCC2(C)C(c3ccoc3)OC(=O)C3OC321 (stereo not given) | > 125 |

System: SNB-19 CNS
Assay: NCI tumour cell line growth inhibition, 48 h

| SMILES | TGI [µM] |
| --- | --- |
| O=C(OCc1ccccc1)C(Cc1ccccc1)N(Cc1ccccc1)Cc1ccccc1 (stereo not given) | > 100 |
| O=[N+]([O-])c1ccc(C2=Nc3ccccc3SC(c3ccccc3)C2)cc1 (stereo not given) | 32.3 |
| CCCCC#CS(=O)(=O)C(F)(F)F | > 100 |
| O=C(c1ccco1)C1CC(c2c(O)ccc3ccccc23)=NN1 (stereo not given) | 47.8 |
| CC1(C)OC2CC(=O)OCC23C1CC(=O)C1(C)C3CCC2(C)C(c3ccoc3)OC(=O)C3OC321 (stereo not given) | > 125 |

System: OVCAR-5 ovarian
Assay: NCI tumour cell line growth inhibition, 48 h

| SMILES | TGI [µM] |
| --- | --- |
| O=C(OCc1ccccc1)C(Cc1ccccc1)N(Cc1ccccc1)Cc1ccccc1 (stereo not given) | > 100 |
| O=[N+]([O-])c1ccc(C2=Nc3ccccc3SC(c3ccccc3)C2)cc1 (stereo not given) | 36.6 |
| CCCCC#CS(=O)(=O)C(F)(F)F | > 100 |
| O=C(c1ccco1)C1CC(c2c(O)ccc3ccccc23)=NN1 (stereo not given) | 36.3 |
| CC1(C)OC2CC(=O)OCC23C1CC(=O)C1(C)C3CCC2(C)C(c3ccoc3)OC(=O)C3OC321 (stereo not given) | > 125 |

System: ACHN renal
Assay: NCI tumour cell line growth inhibition, 48 h

| SMILES | TGI [µM] |
| --- | --- |
| O=C(OCc1ccccc1)C(Cc1ccccc1)N(Cc1ccccc1)Cc1ccccc1 (stereo not given) | > 100 |
| O=[N+]([O-])c1ccc(C2=Nc3ccccc3SC(c3ccccc3)C2)cc1 (stereo not given) | 36.2 |
| O=C(c1ccco1)C1CC(c2c(O)ccc3ccccc23)=NN1 (stereo not given) | 25 |

System: DMS 114 small cell lung
Assay: NCI tumour cell line growth inhibition, 48 h

| SMILES | TGI [µM] |
| --- | --- |
| O=C(OCc1ccccc1)C(Cc1ccccc1)N(Cc1ccccc1)Cc1ccccc1 (stereo not given) | > 100 |
| O=[N+]([O-])c1ccc(C2=Nc3ccccc3SC(c3ccccc3)C2)cc1 (stereo not given) | 32.8 |
| CCCCC#CS(=O)(=O)C(F)(F)F | > 100 |
| CC1(C)OC2CC(=O)OCC23C1CC(=O)C1(C)C3CCC2(C)C(c3ccoc3)OC(=O)C3OC321 (stereo not given) | > 125 |

System: KM20L2 colon
Assay: NCI tumour cell line growth inhibition, 48 h

| SMILES | TGI [µM] |
| --- | --- |
| O=C(OCc1ccccc1)C(Cc1ccccc1)N(Cc1ccccc1)Cc1ccccc1 (stereo not given) | > 100 |
| O=[N+]([O-])c1ccc(C2=Nc3ccccc3SC(c3ccccc3)C2)cc1 (stereo not given) | 32.8 |
| CCCCC#CS(=O)(=O)C(F)(F)F | > 100 |
| CC1(C)OC2CC(=O)OCC23C1CC(=O)C1(C)C3CCC2(C)C(c3ccoc3)OC(=O)C3OC321 (stereo not given) | > 125 |

System: HCT-15 colon
Assay: NCI tumour cell line growth inhibition, 48 h

| SMILES | TGI [µM] |
| --- | --- |
| O=C(OCc1ccccc1)C(Cc1ccccc1)N(Cc1ccccc1)Cc1ccccc1 (stereo not given) | > 100 |
| O=[N+]([O-])c1ccc(C2=Nc3ccccc3SC(c3ccccc3)C2)cc1 (stereo not given) | 30.9 |
| CCCCC#CS(=O)(=O)C(F)(F)F | > 100 |
| O=C(c1ccco1)C1CC(c2c(O)ccc3ccccc23)=NN1 (stereo not given) | > 100 |
| CC1(C)OC2CC(=O)OCC23C1CC(=O)C1(C)C3CCC2(C)C(c3ccoc3)OC(=O)C3OC321 (stereo not given) | > 125 |

System: SK-OV-3 ovarian
Assay: NCI tumour cell line growth inhibition, 48 h

| SMILES | TGI [µM] |
| --- | --- |
| O=C(OCc1ccccc1)C(Cc1ccccc1)N(Cc1ccccc1)Cc1ccccc1 (stereo not given) | > 100 |
| O=[N+]([O-])c1ccc(C2=Nc3ccccc3SC(c3ccccc3)C2)cc1 (stereo not given) | 46 |
| CCCCC#CS(=O)(=O)C(F)(F)F | > 100 |
| O=C(c1ccco1)C1CC(c2c(O)ccc3ccccc23)=NN1 (stereo not given) | 56.6 |
| CC1(C)OC2CC(=O)OCC23C1CC(=O)C1(C)C3CCC2(C)C(c3ccoc3)OC(=O)C3OC321 (stereo not given) | > 125 |

System: UO-31 renal
Assay: NCI tumour cell line growth inhibition, 48 h

| SMILES | TGI [µM] |
| --- | --- |
| O=C(OCc1ccccc1)C(Cc1ccccc1)N(Cc1ccccc1)Cc1ccccc1 (stereo not given) | > 100 |
| O=[N+]([O-])c1ccc(C2=Nc3ccccc3SC(c3ccccc3)C2)cc1 (stereo not given) | 25.8 |
| CCCCC#CS(=O)(=O)C(F)(F)F | > 100 |
| O=C(c1ccco1)C1CC(c2c(O)ccc3ccccc23)=NN1 (stereo not given) | 23.1 |
| CC1(C)OC2CC(=O)OCC23C1CC(=O)C1(C)C3CCC2(C)C(c3ccoc3)OC(=O)C3OC321 (stereo not given) | > 125 |

System: COLO 205 colon
Assay: NCI tumour cell line growth inhibition, 48 h

| SMILES | TGI [µM] |
| --- | --- |
| O=C(OCc1ccccc1)C(Cc1ccccc1)N(Cc1ccccc1)Cc1ccccc1 (stereo not given) | > 100 |
| O=[N+]([O-])c1ccc(C2=Nc3ccccc3SC(c3ccccc3)C2)cc1 (stereo not given) | 31.8 |
| CCCCC#CS(=O)(=O)C(F)(F)F | > 100 |
| O=C(c1ccco1)C1CC(c2c(O)ccc3ccccc23)=NN1 (stereo not given) | 21.7 |
| CC1(C)OC2CC(=O)OCC23C1CC(=O)C1(C)C3CCC2(C)C(c3ccoc3)OC(=O)C3OC321 (stereo not given) | > 125 |

System: NCI-H226 lung
Assay: NCI tumour cell line growth inhibition, 48 h

| SMILES | TGI [µM] |
| --- | --- |
| O=[N+]([O-])c1ccc(C2=Nc3ccccc3SC(c3ccccc3)C2)cc1 (stereo not given) | 54 |
| CCCCC#CS(=O)(=O)C(F)(F)F | > 100 |
| O=C(c1ccco1)C1CC(c2c(O)ccc3ccccc23)=NN1 (stereo not given) | 40.2 |
| CC1(C)OC2CC(=O)OCC23C1CC(=O)C1(C)C3CCC2(C)C(c3ccoc3)OC(=O)C3OC321 (stereo not given) | > 125 |
